Patent US7659284B2, “Thiazolopyridine kinase inhibitors” (Janssen Pharmaceutica NV, priority 2004, dated 2010)

Molecular target: T1, EGFR (Homo sapiens, UniProt P00533)
T1 construct: started at nucleotide 2189 (corresponding to amino acid 667) and ended at the termination codon; made in house; host or cells: Sf9 insect cells (baculovirus)
Experiment: EGFR Kinase Assay (GST-EGFR, 33P-ATP, Streptavidin Flashplate)
Assay type: biochemical
Details: GST-EGFR intracellular portion, 5 μM ATP
Description: The EGFR kinase used was a fusion of Glutathione-S-Transferase (GST) and a PCR amplified intracellular portion of EGFR (NM_005228). The intracellular portion of EGFR started at nucleotide 2189 (corresponding to amino acid 667) and ended at the termination codon. The portion was PCR amplified with primers that added the lambda attB sequences to each end, recombined into an entry vector, then into a GST destination vector (as described in Gateway Technologies Manual by Invitrogen Corporation, Carlsbad, Calif.).
The destination vector was recombined in the DH10BAC strain of bacteria to produce a bacmid. The bacmid was transfected into Sf 9 cells and the supernatant containing the baculovirus was collected. The GSTEGFR protein was purified using large cultures of Sf 9 cells infected with stock virus. After an appropriate period of time, the cells were collected and lysed. The GSTEGFR was then purified from the lysate on Glutathione-Sepharose columns (as described by Amersham Biosciences, Buckinghamshire, United Kingdom).
The EGFR substrate was prepared by biotinylating polyGluTyr (128 mg) (Sigma, St. Louis, Mo.) in a 1×PBS buffer incubated together with a 12-fold molar excess of Sulfo-NHS-LC-Biotin on ice for at least 2 hrs. The free biotin was separated from the biotinylated polyGluTyr on a gel filtration column.
A mixture of a 10× kinase buffer (500 mM Tris at pH 8.0, 100 mM Magnesium Chloride and 1 mM Sodium Vanadate), DTT (1 mM final from 500 mM stock), ATP (5 μM final from 10 mM stock), biotinylated polyGluTyr (10 μg/μL stock), γ-^33P ATP (10 μCi/μL stock) and water was added to each well (90 μL/well) of a Streptavidin Flashplate (Perkin Elmer, Wellesley, Mass.).
Test compound in 100% DMSO (2 μL) was added to the appropriate wells. Diluted GSTEGFR (1:300 dilution in 50 mM Tris at pH 8.0 and 0.1% bovine serum albumin) (10 μL) was added to the wells to initiate the reactions.
The plates were incubated at 30° C. for 1 hr with shaking. The reacted contents were removed and the plates were sequentially washed three times with a 1×PBS stop buffer (300 μL without Magnesium and Calcium) and 100 mM EDTA. After the final wash, the same stop buffer (200 μL) was added to the wells. The plates were then sealed and read on the TopCount scintillation counter.
Test compounds were assayed in triplicate at 16 concentrations at half-log dilutions starting at 200 uM. A maximum and minimum signal for the assay was determined on each plate. The percent inhibition of a test compound was calculated accord to the formula
For a series of test concentrations, the IC50 was derived by graphing percent inhibition against the log of the concentrations tested for a given compound. For those compounds without an IC50, the percent inhibition results are shown at a test concentration of 2 μM.

T1 sequence (P00533 667-1210 limits assumed): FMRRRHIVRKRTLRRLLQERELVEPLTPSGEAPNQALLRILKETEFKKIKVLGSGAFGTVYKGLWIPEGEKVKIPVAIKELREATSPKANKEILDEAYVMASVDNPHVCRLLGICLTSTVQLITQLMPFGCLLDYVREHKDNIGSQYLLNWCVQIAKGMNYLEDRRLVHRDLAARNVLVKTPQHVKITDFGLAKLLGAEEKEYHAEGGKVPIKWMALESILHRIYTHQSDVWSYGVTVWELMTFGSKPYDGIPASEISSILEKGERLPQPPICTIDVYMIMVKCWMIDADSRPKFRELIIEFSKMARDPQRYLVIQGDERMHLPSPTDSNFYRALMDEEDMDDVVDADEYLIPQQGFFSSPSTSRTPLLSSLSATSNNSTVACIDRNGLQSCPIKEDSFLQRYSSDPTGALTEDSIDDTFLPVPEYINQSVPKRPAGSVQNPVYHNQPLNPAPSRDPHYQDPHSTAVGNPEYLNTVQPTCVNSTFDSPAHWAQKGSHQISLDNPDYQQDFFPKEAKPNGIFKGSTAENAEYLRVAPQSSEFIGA

IC50 [nM] | Structure (SMILES)
22.6 | CCc1nccn1Cc1ccc(Nc2nc3ncc(C#N)c(Nc4ccc(F)c(Cl)c4)c3s2)cc1 [Cpd 1, 7-(3-chloro-4-fluoro-phenylamino)-2-[4-(2-ethyl-imidazol-1-ylmethyl)-phenylamino]-thiazolo[4,5-b]pyridine-6-carbonitrile]
78 | N#Cc1cnc2nc(Nc3ccc(CN4CCOCC4)cc3)sc2c1Nc1ccc(F)c(Cl)c1 [Cpd 2, 7-(3-chloro-4-fluoro-phenylamino)-2-(4-morpholin-4-ylmethyl-phenylamino)-thiazolo[4,5-b]pyridine-6-carbonitrile]
43.7 | CN(C)Cc1ccc(Nc2nc3ncc(C#N)c(Nc4ccc(F)c(Cl)c4)c3s2)cc1 [Cpd 3, 7-(3-chloro-4-fluoro-phenylamino)-2-(4-dimethylaminomethyl-phenylamino)-thiazolo[4,5-b]pyridine-6-carbonitrile]
49 | COCCN(CCOC)Cc1ccc(Nc2nc3ncc(C#N)c(Nc4ccc(F)c(Cl)c4)c3s2)cc1 [Cpd 4, 2-(4-{[bis-(2-methoxy-ethyl)-amino]-methyl}-phenylamino)-7-(3-chloro-4-fluoro-phenylamino)-thiazolo[4,5-b]pyridine-6-carbonitrile]
63.7 | COCCN(CCOC)S(=O)(=O)c1ccc(Nc2nc3ncc(C#N)c(Nc4ccc(F)c(Cl)c4)c3s2)cc1 [Cpd 5, 4-[7-(3-chloro-4-fluoro-phenylamino)-6-cyano-thiazolo[4,5-b]pyridin-2-ylamino]-N,N-bis-(2-methoxy-ethyl)-benzenesulfonamide]
53 | N#Cc1cnc2nc(Nc3ccc(CN4CCC[C@H]4CO)cc3)sc2c1Nc1ccc(F)c(Cl)c1 [Cpd 6, 7-(3-chloro-4-fluoro-phenylamino)-2-{4-[(2S)-2-hydroxymethyl-pyrrolidin-1-ylmethyl]-phenylamino}-thiazolo[4,5-b]pyridine-6-carbonitrile]
28.5 | N#Cc1cnc2nc(Nc3ccc(S(=O)(=O)NCCN4CCOCC4)cc3)sc2c1Nc1ccc(F)c(Cl)c1 [Cpd 7, 4-[7-(3-chloro-4-fluoro-phenylamino)-6-cyano-thiazolo[4,5-b]pyridin-2-ylamino]-N-(2-morpholin-4-yl-ethyl)-benzenesulfonamide]
2630 | N#Cc1cnc2nc(NCCCN3CCOCC3)sc2c1Nc1ccc(F)c(Cl)c1 [Cpd 8, 7-(3-chloro-4-fluoro-phenylamino)-2-(3-morpholin-4-yl-propylamino)-thiazolo[4,5-b]pyridine-6-carbonitrile]
2630 | C#Cc1cccc(Nc2c(C#N)cnc3nc(NCCCN4CCOCC4)sc23)c1 [Cpd 9, 7-(3-ethynyl-phenylamino)-2-(3-morpholin-4-yl-propylamino)-thiazolo[4,5-b]pyridine-6-carbonitrile]
41.7 | C#Cc1cccc(Nc2c(C#N)cnc3nc(Nc4ccc(CN5CCC[C@H]5CO)cc4)sc23)c1 [Cpd 11, 7-(3-ethynyl-phenylamino)-2-{4-[(2S)2-hydroxymethyl-pyrrolidin-1-ylmethyl]-phenylamino}-thiazolo[4,5-b]pyridine-6-carbonitrile]
15800 | N#Cc1cnc2nc(NCCN3CCOCC3)sc2c1Nc1cccc(Cl)c1 [Cpd 12, 7-(3-chloro-phenylamino)-2-(2-morpholin-4-yl-ethylamino)-thiazolo[4,5-b]pyridine-6-carbonitrile]
3280 | C#Cc1cccc(Nc2c(C#N)cnc3nc(NCCN4CCOCC4)sc23)c1 [Cpd 13, 7-(3-ethynyl-phenylamino)-2-(2-morpholin-4-yl-ethylamino)-thiazolo[4,5-b]pyridine-6-carbonitrile]
29.3 | CN(Cc1ccc(Nc2nc3ncc(C#N)c(Nc4ccc(F)c(Cl)c4)c3s2)cc1)C[C@H]1CCCO1 [Cpd 14, 7-(3-chloro-4-fluoro-phenylamino)-2-[(4-{methyl-[(2R)-tetrahydro-furan-2-ylmethyl]-amino}-methyl)-phenylamino]-thiazolo[4,5-b]pyridine-6-carbonitrile]
76.1 | CN(Cc1ccc(Nc2nc3ncc(C#N)c(Nc4ccc(F)c(Cl)c4)c3s2)cc1)C[C@@H]1CCCO1 [Cpd 15, 7-(3-chloro-4-fluoro-phenylamino)-2-[(4-{methyl-[(2S)-tetrahydro-furan-2-ylmethyl]-amino}-methyl)-phenylamino]-thiazolo[4,5-b]pyridine-6-carbonitrile]
76.4 | CN(Cc1ccc(Nc2nc3ncc(C#N)c(Nc4ccc(F)c(Cl)c4)c3s2)cc1)C1CCOCC1 [Cpd 16, 7-(3-chloro-4-fluoro-phenylamino)-2-(4-{[methyl-(tetrahydro-pyran-4-yl)-amino]-methyl}-phenylamino)-thiazolo[4,5-b]pyridine-6-carbonitrile]
85.7 | CN(C)Cc1ccc(Nc2nc3ncc(C#N)c(Nc4ccc(F)c(Cl)c4)c3s2)cc1Cl [Cpd 18, 2-(3-chloro-4-dimethylaminomethyl-phenylamino)-7-(3-chloro-4-fluoro-phenylamino)-thiazolo[4,5-b]pyridine-6-carbonitrile]
79.5 | N#Cc1cnc2nc(Nc3ccc(CN4CCOCC4)cc3)sc2c1Nc1cccc(Cl)c1 [Cpd 19, 7-(3-chloro-phenylamino)-2-(4-morpholin-4-ylmethyl-phenylamino)-thiazolo[4,5-b]pyridine-6-carbonitrile]
44.6 | N#Cc1cnc2nc(Nc3ccc(CNC[C@H]4CCCO4)cc3)sc2c1Nc1ccc(F)c(Cl)c1 [Cpd 21, 7-(3-chloro-4-fluoro-phenylamino)-2-[4-({[(2R)-tetrahydro-furan-2-ylmethyl]-amino}-methyl)-phenylamino]-thiazolo[4,5-b]pyridine-6-carbonitrile]
853 | N#Cc1cnc2nc(NCc3ccc(CN4CCOCC4)cc3)sc2c1Nc1ccc(F)c(Cl)c1 [Cpd 22, 7-(3-chloro-4-fluoro-phenylamino)-2-(4-morpholin-4-ylmethyl-benzylamino)-thiazolo[4,5-b]pyridine-6-carbonitrile]
158 | COc1ccc(Nc2nc3ncc(C#N)c(Nc4ccc(F)c(Cl)c4)c3s2)cn1 [Cpd 26, 7-(3-chloro-4-fluoro-phenylamino)-2-(6-methoxy-pyridin-3-ylamino)-thiazolo[4,5-b]pyridine-6-carbonitrile]
207 | N#Cc1cnc2nc(Nc3ccc(O)nc3)sc2c1Nc1ccc(F)c(Cl)c1 [Cpd 27, 7-(3-chloro-4-fluoro-phenylamino)-2-(6-hydroxy-pyridin-3-ylamino)-thiazolo[4,5-b]pyridine-6-carbonitrile]
327 | N#Cc1cnc2nc(Nc3ccc(Cl)nc3)sc2c1Nc1ccc(F)c(Cl)c1 [Cpd 28, 7-(3-chloro-4-fluoro-phenylamino)-2-(6-chloro-pyridin-3-ylamino)-thiazolo[4,5-b]pyridine-6-carbonitrile]
69.6 | N#Cc1cnc2nc(Nc3ccc(NCCCN4CCOCC4)nc3)sc2c1Nc1ccc(F)c(Cl)c1 [Cpd 29, 7-(3-chloro-4-fluoro-phenylamino)-2-[6-(3-morpholin-4-yl-propylamino)-pyridin-3-ylamino]-thiazolo[4,5-b]pyridine-6-carbonitrile]
67.7 | N#Cc1cnc2nc(Nc3ccc(NCCN)nc3)sc2c1Nc1ccc(F)c(Cl)c1 [Cpd 30, 2-[6-(2-amino-ethylamino)-pyridin-3-ylamino]-7-(3-chloro-4-fluoro-phenylamino)-thiazolo[4,5-b]pyridine-6-carbonitrile]
60.4 | N#Cc1cnc2nc(Nc3ccc(CN4CCC(N)CC4)cc3)sc2c1Nc1ccc(F)c(Cl)c1 [Cpd 31, 2-[4-(4-amino-piperidin-1-ylmethyl)-phenylamino]-7-(3-chloro-4-fluoro-phenylamino)-thiazolo[4,5-b]pyridine-6-carbonitrile]
1450 | N#Cc1cnc2nc(Nc3ccc(CN4CCOCC4)cc3)sc2c1Nc1ccc(Cl)cc1Cl [Cpd 34, 7-(2,4-dichloro-phenylamino)-2-(4-morpholin-4-ylmethyl-phenylamino)-thiazolo[4,5-b]pyridine-6-carbonitrile]
